Numbers after ± are expanded uncertainties.
Assay: xn = mol fraction of the nth substance listed
Settings: 101 kPa, Liquid

CCCCCCCCCCO [decan-1-ol] + CCCCCCCCO
Settings | mass density [kg/m3] | viscosity [mPa·s]
283.15 K, x2 = 0 | 836.6 ± 0.6 | 22.06 ± 0.57
283.15 K, x2 = 0.0995 | 836.1 ± 0.6 | 21.14 ± 0.55
283.15 K, x2 = 0.1998 | 835.7 ± 0.6 | 20.23 ± 0.53
283.15 K, x2 = 0.3007 | 835.3 ± 0.6 | 19.39 ± 0.51
283.15 K, x2 = 0.4001 | 834.9 ± 0.6 | 18.46 ± 0.48
283.15 K, x2 = 0.4996 | 834.5 ± 0.6 | 17.59 ± 0.46
283.15 K, x2 = 0.5988 | 834 ± 0.6 | 16.69 ± 0.44
283.15 K, x2 = 0.6998 | 833.6 ± 0.6 | 15.82 ± 0.42
283.15 K, x2 = 0.8001 | 833.1 ± 0.6 | 15.11 ± 0.4
283.15 K, x2 = 0.9 | 832.8 ± 0.6 | 14.2 ± 0.38
288.15 K, x2 = 0 | 833.3 ± 0.6 | 17.99 ± 0.47
288.15 K, x2 = 0.0995 | 832.7 ± 0.6 | 17.18 ± 0.45
288.15 K, x2 = 0.1998 | 832.3 ± 0.6 | 16.53 ± 0.44
288.15 K, x2 = 0.3007 | 831.9 ± 0.6 | 15.64 ± 0.42
288.15 K, x2 = 0.4001 | 831.5 ± 0.6 | 15.11 ± 0.4
288.15 K, x2 = 0.4996 | 831.1 ± 0.6 | 14.23 ± 0.38
288.15 K, x2 = 0.5988 | 830.6 ± 0.6 | 13.71 ± 0.37
288.15 K, x2 = 0.6998 | 830.2 ± 0.6 | 13.02 ± 0.35
288.15 K, x2 = 0.8001 | 829.7 ± 0.6 | 12.25 ± 0.34
288.15 K, x2 = 0.9 | 829.4 ± 0.6 | 11.75 ± 0.33
293.15 K, x2 = 0 | 829.9 ± 0.6 | 14.39 ± 0.39
293.15 K, x2 = 0.0995 | 829.3 ± 0.6 | 13.84 ± 0.38
293.15 K, x2 = 0.1998 | 828.9 ± 0.6 | 13.31 ± 0.36
293.15 K, x2 = 0.3007 | 828.5 ± 0.6 | 12.67 ± 0.35
293.15 K, x2 = 0.4001 | 828.1 ± 0.6 | 12.26 ± 0.34
293.15 K, x2 = 0.4996 | 827.7 ± 0.6 | 11.59 ± 0.32
293.15 K, x2 = 0.5988 | 827.2 ± 0.6 | 11.05 ± 0.31
293.15 K, x2 = 0.6998 | 826.9 ± 0.6 | 10.32 ± 0.29
293.15 K, x2 = 0.8001 | 826.3 ± 0.6 | 9.75 ± 0.28
293.15 K, x2 = 0.9 | 825.9 ± 0.6 | 9.008 ± 0.26
298.15 K, x2 = 0 | 826.5 ± 0.6 | 11.74 ± 0.33
298.15 K, x2 = 0.0995 | 825.9 ± 0.6 | 11.31 ± 0.32
298.15 K, x2 = 0.1998 | 825.5 ± 0.6 | 10.94 ± 0.31
298.15 K, x2 = 0.3007 | 825.1 ± 0.6 | 10.53 ± 0.3
298.15 K, x2 = 0.4001 | 824.7 ± 0.6 | 10.07 ± 0.28
298.15 K, x2 = 0.4996 | 824.3 ± 0.6 | 9.596 ± 0.27
298.15 K, x2 = 0.5988 | 823.8 ± 0.6 | 9.244 ± 0.27
298.15 K, x2 = 0.6998 | 823.4 ± 0.6 | 8.756 ± 0.25
298.15 K, x2 = 0.8001 | 822.8 ± 0.6 | 8.308 ± 0.24
298.15 K, x2 = 0.9 | 822.3 ± 0.6 | 7.812 ± 0.23
303.15 K, x2 = 0 | 823 ± 0.6 | 9.561 ± 0.27
303.15 K, x2 = 0.0995 | 822.5 ± 0.6 | 9.231 ± 0.27
303.15 K, x2 = 0.1998 | 822.1 ± 0.6 | 8.924 ± 0.26
303.15 K, x2 = 0.3007 | 821.7 ± 0.6 | 8.589 ± 0.25
303.15 K, x2 = 0.4001 | 821.3 ± 0.6 | 8.213 ± 0.24
303.15 K, x2 = 0.4996 | 820.8 ± 0.6 | 7.898 ± 0.23
303.15 K, x2 = 0.5988 | 820.4 ± 0.6 | 7.57 ± 0.23
303.15 K, x2 = 0.6998 | 820 ± 0.6 | 7.259 ± 0.22
303.15 K, x2 = 0.8001 | 819.4 ± 0.6 | 6.992 ± 0.21
303.15 K, x2 = 0.9 | 818.9 ± 0.6 | 6.655 ± 0.2
308.15 K, x2 = 0 | 819.6 ± 0.6 | 8 ± 0.24
308.15 K, x2 = 0.0995 | 819.1 ± 0.6 | 7.768 ± 0.23
308.15 K, x2 = 0.1998 | 818.7 ± 0.6 | 7.492 ± 0.22
308.15 K, x2 = 0.3007 | 818.3 ± 0.6 | 7.211 ± 0.22
308.15 K, x2 = 0.4001 | 817.8 ± 0.6 | 6.961 ± 0.21
308.15 K, x2 = 0.4996 | 817.4 ± 0.6 | 6.672 ± 0.2
308.15 K, x2 = 0.5988 | 816.9 ± 0.6 | 6.389 ± 0.2
308.15 K, x2 = 0.6998 | 816.5 ± 0.6 | 6.143 ± 0.19
308.15 K, x2 = 0.8001 | 815.9 ± 0.6 | 5.851 ± 0.18
308.15 K, x2 = 0.9 | 815.5 ± 0.6 | 5.653 ± 0.18
313.15 K, x2 = 0 | 816.3 ± 0.6 | 6.831 ± 0.21
313.15 K, x2 = 0.0995 | 815.6 ± 0.6 | 6.649 ± 0.2
313.15 K, x2 = 0.1998 | 815.2 ± 0.6 | 6.408 ± 0.2
313.15 K, x2 = 0.3007 | 814.8 ± 0.6 | 6.189 ± 0.19
313.15 K, x2 = 0.4001 | 814.4 ± 0.6 | 5.979 ± 0.19
313.15 K, x2 = 0.4996 | 813.9 ± 0.6 | 5.711 ± 0.18
313.15 K, x2 = 0.5988 | 813.5 ± 0.6 | 5.513 ± 0.18
313.15 K, x2 = 0.6998 | 813 ± 0.6 | 5.287 ± 0.17
313.15 K, x2 = 0.8001 | 812.4 ± 0.6 | 5.057 ± 0.17
313.15 K, x2 = 0.9 | 812 ± 0.6 | 4.784 ± 0.16
